Data published in article PMC5355295, “A new semisynthetic cardenolide analog 3β-[2-(1-amantadine)- 1-on-ethylamine]-digitoxigenin (AMANTADIG) affects G2/M cell cycle arrest and miRNA expression profiles and enhances proapoptotic survivin-2B expression in renal cell carcinoma cell lines” (Oncotarget, 2017).

Target: T1, Na+/K+-ATPase α1,2,3 subunit
T1 construct: gene ATP1A1; Na+/K+-ATPase α1,2,3 subunit of porcine cortex (Sigma)
Test: ATPase activity, malachite green Pi release, […] min pre-incubation
Assay type: biochemical, Sus scrofa

CO[C@H]1[C@@H](O)C[C@H](O[C@H]2[C@@H](O)C[C@H](O[C@H]3[C@@H](O)C[C@H](O[C@H]4CC[C@@]5(C)[C@H](CC[C@@H]6[C@@H]5C[C@@H](O)[C@]5(C)[C@@H](C7=CC(=O)OC7)CC[C@]65O)C4)O[C@@H]3C)O[C@@H]2C)O[C@@H]1C [β-methyldigoxin]
IC50: 16.7 µM
